Here are results for two compounds from patent US9322895B2, “Method of determining metabolic function using magnetic resonance spectroscopic imaging” (Greater Glasgow Health Board, priority 2009, dated 2016).

For series [1] the following is noted: standard temperature and pressure; cited from earlier work.
In series [2] the test system is anaesthetised rats following a middle cerebral artery occlusion (MCAO). Put plainly: Localised 1H spectroscopy (PRESS) with oxygen challenge in rats following MCAO. Format: in vivo. Particulars: rat MCAO. The protocol: In-vivo MRI experiments were performed on anaesthetised rats following a middle cerebral artery occlusion (MCAO). The measurements included RARE T2 imaging, diffusion weighted imaging (DWI), perfusion weighted imaging (PWI), 1H localised spectroscopy and lactate difference imaging (LDI).
The first experiment used a standard localised spectroscopy sequence (PRESS) to acquire 1H spectra. One voxel was placed in the presumed penumbral region (as indicated by DWI/PWI mismatch), a second voxel was placed in the normal contralateral hemisphere (see FIG. 1)

For the compound `FC1(F)C(F)(F)C(F)(F)C2(F)C(F)(F)C(F)(F)C(F)(F)C(F)(F)C2(F)C1(F)F` (stereo not shown) [Perflorodecalin], the “oxygen carried by 100 ml” value in series [1] is 49 mL.
As to `O=O` [oxygen], the “lactate peak in the penumbra on returning to 100% inhaled air” value in series [2] (after the oxygen challenge) is “increased back to previous level”. Besides, in series [2] (challenge of 100% inhaled oxygen, voxel in DWI/PWI mismatch), the “lactate peak in the penumbral region” value is given as “significant decrease”. The “lactate peak in the contralateral region” value in series [2] (challenge of 100% inhaled oxygen, voxel in normal contralateral hemisphere) is on record as “remained unchanged”.
